# Earlier results as cited in patent US10077293B2, “Antimicrobial peptide analogues derived from abalone (Haliotis discus) and antimicrobial pharmaceutical composition containing the same” (priority 2016, dated 2018).
# Entries after “also recorded” stand apart in the source; their conditions may differ.
# What was measured:
# [1] = test system: Gram positive and Gram negative bacteria; conditions: background statement; cited from earlier work
# C. albicans = conditions: parent peptide, background statement; cited from earlier work
substance,measurement,setting,value
"hdMolluscidin (AATKPKKAGAEAAPKKPAKKQTKKKPAKKAGGKKKPKRAGAKKAKK; listed as Haliotis discus) [antimicrobial peptide consisting of 46 amino acids, purified from the gill of abalone (Haliotis discus); parent peptide]",antimicrobial activity against Gram positive and Gram negative bacteria (in words),[1],strong antimicrobial activity
same,antimicrobial activity against C. albicans (in words),C. albicans,little antimicrobial activity; also recorded: no activity
